The source of these data is PubChem BioAssay (NCI).

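How tested: cells in 96-well plates exposed to compound for 48 hours at five concentrations. TGI marks complete inhibition of growth.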 Some results are limits rather than exact numbers.

Among the test systems are A498 renal; 786-0 renal; DU-145 prostate; SK-MEL-5 melanoma; M14 melanoma; OVCAR-4 ovarian; SW-620 colon; K-562 leukemia; SK-MEL-28 melanoma; HOP-62 NSCLC; RXF 393 renal.
Common to all, as to experiment: DTP human tumour cell line panel, 48 h

The TGI is the concentration giving total growth inhibition. A low value points to more potent growth arrest. With `Cn1/c(=N\S(=O)(=O)c2ccccc2)n(S(=O)(=O)c2ccccc2)c2ccccc21`, the total growth inhibition concentration (TGI) in the test on A498 renal, in the test with 786-0 renal, with DU-145 prostate, in the test with SK-MEL-5 melanoma, with M14 melanoma and in the test on OVCAR-4 ovarian was > 100 µM each time. For the same compound, the total growth inhibition concentration (TGI) with SW-620 colon, in the test on K-562 leukemia, in the test with SK-MEL-28 melanoma, in the test with HOP-62 NSCLC and in the test on RXF 393 renal was > 100 µM each time.
On to `CC1OC(O[C@H]2C3C=CO[C@@H](OC4OC(CO)C(O)C(O)C4O)C3[C@@]3(COC(=O)/C=C/c4ccc(O)cc4)O[C@@H]23)C(O)C(O)C1O` (some centres not stated), for which the TGI in the test on A498 renal, in the test on 786-0 renal, with DU-145 prostate, with SK-MEL-5 melanoma, in the test with M14 melanoma and with OVCAR-4 ovarian was > 100 µM each time. Besides, the total growth inhibition concentration (TGI) with SW-620 colon, in the test with K-562 leukemia, with SK-MEL-28 melanoma, in the test with HOP-62 NSCLC and with RXF 393 renal was > 100 µM each time.
As for `CC(=C(C(N)=O)C(N)=O)C1C=C(c2cccs2)CC(c2ccc(Cl)cc2)=C1O` (configuration not stated), the TGI was > 100 µM in the test on A498 renal; > 100 µM with 786-0 renal; > 100 µM in the test on DU-145 prostate; > 100 µM in the test with SK-MEL-5 melanoma; > 100 µM in the test on M14 melanoma; 78.8 µM in the test on OVCAR-4 ovarian. Moreover, the TGI in the test on SW-620 colon, in the test with K-562 leukemia, in the test on SK-MEL-28 melanoma, in the test with HOP-62 NSCLC and with RXF 393 renal was > 100 µM throughout.
For `C#CC1(O)C(COP(=O)(O)OCC2OC(n3ccc(NCCCCCCCCCCCCCCCCCC)nc3=O)C(O)C2O)OC(n2ccc(N)nc2=O)C1O` (configuration not stated), the total growth inhibition concentration (TGI) was 59.2 µM with A498 renal; > 100 µM in the test with 786-0 renal; > 100 µM with DU-145 prostate; 26 µM in the test on SK-MEL-5 melanoma; 15.2 µM in the test on M14 melanoma; 34.8 µM in the test with OVCAR-4 ovarian. Besides, the concentration for total growth inhibition (TGI) with SW-620 colon is > 50 µM; with K-562 leukemia, 19.9 µM; with SK-MEL-28 melanoma, 31.6 µM; in the test on HOP-62 NSCLC, 46.7 µM; with RXF 393 renal, 61.9 µM.
For `CC(C)(C)c1cc(C2=NN(c3ccccc3)C(c3ccccc3)C2)cc(C(C)(C)C)c1O` (configuration not stated), the total growth inhibition concentration (TGI) with A498 renal, in the test with 786-0 renal, with DU-145 prostate, in the test with SK-MEL-5 melanoma, in the test on M14 melanoma and in the test with OVCAR-4 ovarian was > 100 µM in each case. The TGI with SW-620 colon, in the test with K-562 leukemia, in the test with SK-MEL-28 melanoma, in the test on HOP-62 NSCLC and in the test on RXF 393 renal was > 100 µM in each case.
As for `CC1(CCCO)CCCCCCCCCC(C)(CCCO)C1=O` (configuration not stated), the TGI in the test on A498 renal, in the test on 786-0 renal, in the test with DU-145 prostate, with SK-MEL-5 melanoma, in the test with M14 melanoma and in the test with OVCAR-4 ovarian was > 100 µM in each case. The concentration for total growth inhibition (TGI) with SW-620 colon, in the test with K-562 leukemia, in the test with SK-MEL-28 melanoma, in the test on HOP-62 NSCLC and with RXF 393 renal was > 100 µM throughout.
As to `CCCCCCCCCCCCOP(=O)(O)OCC(N)C(=O)O` (configuration not stated), the TGI in the test with A498 renal was 75.8 µM; in the test on 786-0 renal it was > 100 µM; in the test on DU-145 prostate, > 100 µM; with SK-MEL-5 melanoma it was 61.7 µM; in the test with M14 melanoma, > 100 µM; in the test on OVCAR-4 ovarian it was > 100 µM. Moreover, the total growth inhibition concentration (TGI) was > 100 µM in the test on SW-620 colon; > 100 µM with K-562 leukemia; > 100 µM in the test on SK-MEL-28 melanoma; 31.6 µM in the test with HOP-62 NSCLC; > 100 µM in the test on RXF 393 renal.
